{"source": "patent US20240082217A1", "about": "“PROCESS FOR OBTAINING A PURIFIED PS[…] SOLUTION” (PSILO SCIENTIFIC LTD, priority 2020, published 2024)", "origin": "cited, not measured here", "conditions": "stated as a property of the alkaloid, freebase form; no measurement described"}
{"smiles": "CN(C)CCc1c[nH]c2cccc(O)c12", "note": "[psilocin]", "values": [{"measurement": "isoelectric point (pH)", "value": "8.47±0.25", "unit": "pH"}]}
